Legend:
[1] = tested on: hepatitis type B virus (HBV); assay: Inhibition of HBV DNA replication in HepG2.2.15 cells; format: cell-based; details: HepG2.2.15, HBV DNA replication
Description: The inhibitory effect of the compounds of the present invention on hepatitis type B virus (HBV) was tested. Cytotoxicity and effects on nucleic acid (DNA) replication level of the virus (HBV) of the compounds of the present invention were tested at a virus-cell level.
HepG2.2.15 cells in the logarithmic growth phase were plated in a 96-well plate at a cell concentration of 40 cells per μL. The cells were incubated in a 5% CO2 incubator at 37° C. for 3 days; and the culture medium was replaced with a new one ([…]) before adding compounds. The concentration of the stock solution of each Example compound is 200 μM.

[2] = Cytotoxicity detection (CellTiter-Glo); format: cell-based; details: human, HepG2.2.15 cells, highest concentration 150 μM
Description: The test compounds were diluted to 30 mM with DMSO, with 30 mM as the highest concentration, the compounds were subjected to three-fold serial dilution to various concentrations. 0.2 μL of the compounds at various concentrations were added to a 384-well plate, HepG2.2.15 cells having a concentration of 2000 cells per 50 μL were added to each well, and the highest concentration of the test compounds was 150 μM. 1 μL of DMSO was added to corresponding wells for control. The plate was incubated in a 5% CO2 incubator at 37° C. for 4 days; and 50 μL of CellTiter-Glo was added to each well after 4 days. The plate was read for detection, and a half cytotoxic concentration (CC50) was calculated.

[3] = target: T1, hERG potassium ion channel (Homo sapiens, UniProt Q12809); assay: Predictor hERG Fluorescence Polarization Assay; format: binding; details: hERG fluorescence polarization
T1 construct: purchased
Text: In cardiac muscle cells, hERG (human Ether-a-go-go Related Gene) coded potassium channel mediates delayed rectifier potassium currents (IKr). IKr inhibition is the most important mechanism of QT interval prolongation caused by a drug.
Employing the Predictor™ hERG Fluorescence Polarization Assay, the effect of the compounds on a hERG potassium ion channel was detected.

[4] = In vivo pharmacokinetics (PK) in Beagle dogs; parameters: species or system male Beagle dogs; details: Beagle dog
Description: (§1) The test compounds were administrated to male Beagle dogs by intravenous (iv) and by gavage (po), respectively, the doses of the iv and po administration were respectively 0.5 mg/kg and 2.5 mg/kg, the solvent system for iv administration was 5% DMSO:5% solutol:90% physiological saline, and the solvent system for po administration was 0.5% MC. Blood was collected at multiple time points after iv administration and po administration for the PK study. Plasma samples were subjected to protein precipitation, followed by LC-MS/MS analysis. The mass spectrometer was API 5500, and the liquid chromatograph was a Waters ACQUITY I CLASS system; the chromatographic column was an Agela ASB C18 column (2.1 mm×50 mm, 1.9 μm); mobile phase A was water+0.1% formic acid, and phase B was acetonitrile; the flow rate was 0.4 mL/min, and the column temperature was 40° C. The ion source was an ESI source in a positive ion mode, and the scanning manner is multiple reaction monitoring (MRM).

[5] = In vivo pharmacokinetics (PK) in cynomolgus macaques; parameters: species or system male cynomolgus macaques; details: cynomolgus macaque
Description: as §1, with “cynomolgus macaques” for “Beagle dogs”, “5500,” for “5500, and”

CYP3A4 = CYP3A4 induction test (HepG2 C3A/pCYP3A4-Luc, C8 cells, luciferase); format: cell-based; details: human, HepG2 C3A/pCYP3A4-Luc, C8 cells; CYP3A4 induction, 72 hours
Description: (§2) A test tube of HepG2 C3A/pCYP3A4-Luc, C8 cells was taken out of a liquid nitrogen tank, the cells were recovered in a sterile water bath at 37° C.; and the test tube was gently shaken until ice completely melted. The recovered cells were transferred to a 15 mL sterile centrifuge tube, and 5-10 mL pre-heated basal cell culture medium at 37° C. was added; the cells were naturally settled for 2 minutes and centrifuged (1000 rpm) for 8 minutes. The supernatant was discarded, and the cells were re-suspended with 10 mL pre-heated cell culture medium. The cell suspension was transferred to a 10 cm cell-culture dish and incubated in a 5% CO2 incubator at 37° C. The original cell culture medium was replaced with a selective cell culture medium after 24 hours. The cells were digested after growing in 80%-90% of the culture dish, and then transferred to a 15 mL sterile centrifuge tube. Centrifugation was performed at 1000 rpm for 8 minutes, and the cells were collected. The supernatant was discarded, and the cells were re-suspended with 3 mL pre-heated complete medium. […] The supernatant was discarded, the cells were re-suspended and counted, and the suspension was diluted to 4×10^5 cells per mL. […] The fluorescence signal was measured on a plate reader. A concentration curve of the tested compounds was plotted by using software Prism 5, and the EC50 values were calculated.

CYP450 isoform 3A4 = assay: as above; format: cell-based; details: at a concentration of 10 μM
Description: as §2

hepatitis B virus = assay: Mouse HBV model via tail vein hydrodynamic injection (HDI); format: in vivo, female BALB/c mice
Description: The in vivo inhibitory effect on hepatitis B virus of the compound of the present invention was evaluated by employing a mouse HBV model via tail vein hydrodynamic injection (HDI).
A suspension of compound 10-227 of the present invention was prepared with a 0.5% MC solution as the solvent. Female BALB/c mice were injected with pAAV2-HBV 1.3mer (type D) plasmid DNA via tail vein hydrodynamic injection, and then divided into the control group, test group 1 and test group 2 (5 mice in each group). Oral gavage administration was initiated one day later. The control group was given the 0.5% MC solution each time. The test groups 1 and 2 each time were given compound 10-227 (in the form of the suspension prepared above) at a dosage of 1 mg/kg and 3 mg/kg, respectively. The administration was continued for 7 days, twice a day, at an administration interval of 10 hours or 14 hours. Mouse plasma was collected at different time points (e.g., 1 day, 3 days, 5 days or 7 days after the HDI), and the HBV DNA levels in the plasma samples were detected by the RT-qPCR method.
In addition, throughout the entire in vivo test, the weight and body condition of the mice were measured and observed everyday according to an IACUC (Institutional Animal Care and Use Committee) protocol.

[6] = male, 0.5 mg/kg, iv, 0.50 mg/kg, plasma
[7] = male, 2.5 mg/kg, po, 2.50 mg/kg, plasma
[8] = male, cynomolgus monkey, 0.5 mg/kg, iv, 0.50 mg/kg, plasma
[9] = male, cynomolgus monkey, 2.5 mg/kg, po, 2.50 mg/kg, plasma

T1 sequence (Q12809 whole entry): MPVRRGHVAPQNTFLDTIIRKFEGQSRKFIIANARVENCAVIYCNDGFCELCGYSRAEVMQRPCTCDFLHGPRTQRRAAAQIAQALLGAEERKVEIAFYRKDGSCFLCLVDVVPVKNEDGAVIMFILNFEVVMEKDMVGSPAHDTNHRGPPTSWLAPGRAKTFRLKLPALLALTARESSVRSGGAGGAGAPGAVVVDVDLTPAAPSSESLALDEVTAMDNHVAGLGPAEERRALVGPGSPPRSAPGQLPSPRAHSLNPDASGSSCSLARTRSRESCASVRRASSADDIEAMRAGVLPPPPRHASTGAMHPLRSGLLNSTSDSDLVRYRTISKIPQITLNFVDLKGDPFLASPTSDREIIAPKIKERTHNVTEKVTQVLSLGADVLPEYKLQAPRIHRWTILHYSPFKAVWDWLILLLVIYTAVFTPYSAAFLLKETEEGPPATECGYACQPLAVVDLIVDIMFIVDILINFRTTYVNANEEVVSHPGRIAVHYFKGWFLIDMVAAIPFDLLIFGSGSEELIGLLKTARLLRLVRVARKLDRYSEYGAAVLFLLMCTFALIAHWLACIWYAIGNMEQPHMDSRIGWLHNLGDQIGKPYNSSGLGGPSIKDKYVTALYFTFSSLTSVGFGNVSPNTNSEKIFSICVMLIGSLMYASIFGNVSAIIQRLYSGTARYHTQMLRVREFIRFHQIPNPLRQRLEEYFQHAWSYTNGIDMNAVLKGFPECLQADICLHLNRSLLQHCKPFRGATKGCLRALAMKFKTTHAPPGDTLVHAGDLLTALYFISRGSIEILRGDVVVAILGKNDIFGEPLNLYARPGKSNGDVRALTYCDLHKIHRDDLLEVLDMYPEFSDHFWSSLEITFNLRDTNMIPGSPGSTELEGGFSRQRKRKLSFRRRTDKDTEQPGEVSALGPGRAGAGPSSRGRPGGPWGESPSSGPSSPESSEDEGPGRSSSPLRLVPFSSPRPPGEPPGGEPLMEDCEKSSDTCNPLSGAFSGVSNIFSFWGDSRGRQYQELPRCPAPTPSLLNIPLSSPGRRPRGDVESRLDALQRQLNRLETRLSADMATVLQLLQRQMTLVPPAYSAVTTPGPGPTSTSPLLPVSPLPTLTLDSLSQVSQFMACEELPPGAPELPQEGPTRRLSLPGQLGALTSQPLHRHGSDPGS

## COC(=O)C1=C(CN2CCO[C@H](/C=C/C(=O)O)C2)NC(c2nccs2)=N[C@H]1c1ccc(F)cc1Cl [10-227 of Example 27, (E)-3-((R)-4-(((R)-6-(2-chloro-4-fluorophenyl)-5-(methoxycarbonyl)-2-(thiazol-2-yl)-3,6-dihydropyrimidin-4-yl)methyl)morpholin-2-yl)acrylic Acid]
[1]
  EC50: 0.01 µM
[2]
  CC50 at 4 days: > 150 µM
[3]
  IC50: > 10 µM
[4]; by gavage, 2.50 mg/kg
  amount of exposure in plasma relative to control compound 3: about 14 times
  blood-drug concentration relative to control compound 3: about 6 times
[4]; [6]
  AUC(0-inf): 8750 ng·h/mL
  AUC(0-t): 8690 ng·h/mL
  Cmax: 2310 ng/mL
[4]; [7]
  AUC(0-inf): 33200 ng·h/mL
  AUC(0-t): 32900 ng·h/mL
  Cmax: 7200 ng/mL
[4]; male, plasma, po, 2.5 mg/kg, by gavage, 2.50 mg/kg, read-out: bioavailability (F)
  bioavailability: 75.9%
[5]; by gavage, 2.50 mg/kg
  amount of exposure in plasma relative to control compound 3: about 21 times
  blood-drug concentration relative to control compound 3: about 33 times
[5]; [8]
  AUC(0-inf): 2460 ng·h/mL
  AUC(0-t): 2440 ng·h/mL
  Cmax: 1670 ng/mL
[5]; [9]
  AUC(0-inf): 4570 ng·h/mL
  AUC(0-t): 4420 ng·h/mL
  Cmax: 1070 ng/mL
[5]; male, cynomolgus monkey, plasma, po, 2.5 mg/kg, by gavage, 2.50 mg/kg, read-out: bioavailability (F)
  bioavailability: 37.2%
CYP3A4
  EC50 at 72 h: 123 µM
CYP450 isoform 3A4
  inductive effect on CYP450 isoform 3A4 relative to rifampicin: about 29%
Hepatitis B virus; Test group 1, 1 mg/kg oral gavage twice a day, 1 day after HDI
  HBV DNA level in plasma: 1.95 ± 0.09 log (HBV DNA copies/μl)
Hepatitis B virus; Test group 1, 1 mg/kg oral gavage twice a day, 3 days after HDI
  HBV DNA level in plasma: 2.28 ± 0.17 log (HBV DNA copies/μl)
Hepatitis B virus; Test group 1, 1 mg/kg oral gavage twice a day, 5 days after HDI
  HBV DNA level in plasma: 2.77 ± 0.11 log (HBV DNA copies/μl)
Hepatitis B virus; Test group 1, 1 mg/kg oral gavage twice a day, 7 days after HDI
  HBV DNA level in plasma: 2.77 ± 0.14 log (HBV DNA copies/μl)
Hepatitis B virus; Test group 2, 3 mg/kg oral gavage twice a day, 1 day after HDI
  HBV DNA level in plasma: 1.99 ± 0.09 log (HBV DNA copies/μl)
Hepatitis B virus; Test group 2, 3 mg/kg oral gavage twice a day, 3 days after HDI
  HBV DNA level in plasma: 1.95 ± 0.15 log (HBV DNA copies/μl)
Hepatitis B virus; Test group 2, 3 mg/kg oral gavage twice a day, 5 days after HDI
  HBV DNA level in plasma: 1.57 ± 0.08 log (HBV DNA copies/μl)
Hepatitis B virus; Test group 2, 3 mg/kg oral gavage twice a day, 7 days after HDI
  HBV DNA level in plasma: 1.42 ± 0.31 log (HBV DNA copies/μl)
Hepatitis B virus; mice, during 7 days of administration, 1 and 3 mg/kg
  variation in body weight: < 10%
